# Results: BindingDB's records for doi:10.1021/jm00059a006 (Ura Cnrs 1309, 1993)
# Test: Effective concentration that reduces HIV-induced cytopathic effect by 50% was determined by reverse transcriptase (RT) assay.
row,EC50,Compound
1,0.05 µM,"Cc1cn(C2C=CC(COP(=O)(O)OCC3C=CC(n4cc(C)c(=O)[nH]c4=O)O3)O2)c(=O)[nH]c1=O (stereo not given) [Phosphoric acid bis-[5-(5-methyl-2,4-dioxo-3,4-dihydro-2H-pyrimidin-1-yl)-2,5-dihydro-furan-2-ylmethyl] ester]"
2,0.2 µM,"CCCCCCCCCCCCCCCCOP(=O)(O)OCC1C=CC(n2cc(C)c(=O)[nH]c2=O)O1 (stereo not given) [Phosphoric acid hexadecyl ester 5-(5-methyl-2,4-dioxo-3,4-dihydro-2H-pyrimidin-1-yl)-2,5-dihydro-furan-2-ylmethyl ester]"
3,0.01 µM,"Cc1cn([C@H]2C[C@H](N=[N+]=[N-])[C@@H](CO)O2)c(=O)[nH]c1=O [1-((2R,4S,5S)-4-Azido-5-hydroxymethyl-tetrahydro-furan-2-yl)-5-methyl-1H-pyrimidine-2,4-dione]"
4,0.08 µM,"CCCCCCCCCCCCCCCC(=O)OCC1C=CC(n2cc(C)c(=O)[nH]c2=O)O1 (stereo not given) [Hexadecanoic acid 5-(5-methyl-2,4-dioxo-3,4-dihydro-2H-pyrimidin-1-yl)-2,5-dihydro-furan-2-ylmethyl ester]"
5,0.05 µM,"Cc1cn([C@H]2C=C[C@@H](CO)O2)c(=O)[nH]c1=O [2',3'-didehydro-3'-deoxythymidine]"
